Like-named read-outs stand apart in the source and are kept apart here.
How the values were obtained:
[1] = system: CMV (AD-169 and Davis strains); assay: Anti-CMV activity in HEL cell culture; format: cell-based, human cytomegalovirus; conditions: read-out: EC50, inhibition of CMV replication
VZV (Oka strain) = assay: microbe, parasite or virus in culture; format: cell-based, varicella zoster virus; conditions: read-out: EC50, VZV replication (Oka strain)
[2] = biological target: thymidine kinase deficient VZV mutant strain (07-1); assay: Anti-VZV activity (thymidine kinase deficient mutant strain 07-1); format: cell-based, varicella zoster virus

**Q.** With `C#CCn1ccc(=O)n(CC(=O)Nc2ccc(Oc3ccccc3)cc2)c1=O` as the compound, how does the melting point read?
**A.** 226 to 228 °C

**Q.** For `Cc1ccc(Cn2ccc(=O)n(CC(=O)Nc3ccc(Oc4ccccc4)cc3)c2=O)cc1`, which melting point is on record?
**A.** 193 to 194 °C

**Q.** For `O=C(Cn1c(=O)ccn(CC=Cc2ccccc2)c1=O)Nc1ccc(Oc2ccccc2)cc1`, which melting point is on record?
**A.** 184 to 185 °C

**Q.** For `O=C(Cn1c(=O)ccn(CCOc2ccccc2)c1=O)Nc1ccc(Oc2ccccc2)cc1`, which melting point is on record?
**A.** 154 to 155 °C

**Q.** Which results are given for `O=C(Cn1c(=O)ccn(Cc2ccccc2)c1=O)Nc1ccc(Oc2ccccc2)cc1` [Compound 4, 2-(3-Benzyl-2,6-dioxo-3,6-dihydropyrimidin-1(2H)-yl)-N-(4-phenoxyphenyl)acetamides]?
**A.** EC50 ([1]; one range printed for both compounds and both strains): 3.06 to 8.9 µM; EC50 (VZV (Oka strain); HEL cell culture, Oka strain): 8.18 µM; EC50 ([2]; strain 07-1, resistant to acyclovir and brivudine, read-out: EC50, thymidine kinase deficient VZV mutant strain (07-1)): 6.68 µM

**Q.** Which EC50 ([1]; Human betaherpesvirus 5, AD169, one range printed for both compounds and both strains) does the source give for `Cc1cc(C)cc(Cn2ccc(=O)n(CC(=O)Nc3ccc(Oc4ccccc4)cc3)c2=O)c1` [Compound 6, 2-[3-(3,5-Dimethylbenzyl)-2,6-dioxo-3,6-dihydropyrimidin-1(2H)-yl]-N-(4-phenoxyphenyl)acetamide] here?
**A.** 3.06 to 8.9 µM

**Q.** And the EC50 (VZV (Oka strain); Human alphaherpesvirus 3, HEL)?
**A.** 17 µM

**Q.** And the EC50 ([2]; Human alphaherpesvirus 3, read-out: EC50, thymidine kinase deficient VZV mutant strain (07-1))?
**A.** 16.1 µM

**Q.** And the melting point?
**A.** 99 to 101 °C

**Q.** Which EC50 (VZV (Oka strain); Human alphaherpesvirus 3, HEL) does the source give for `O=c1[nH]c(=O)n([C@H]2C[C@H](O)[C@@H](CO)O2)cc1/C=C/Br` [brivudine, reference compound] here?
**A.** 0.026 µM
